Usually IC50 stands for the concentration that gives 50% inhibition.

These results are taken from patent publication US20210212967A1, “Treatment of Irritable Bowel Syndrome” (Gruenenthal GmbH, priority 2010, published 2021).

Each structure is given as a SMILES string.

Assay [1] relates to visceral hyperalgesia induced by rectal administration of mustard oil in mice. Kind of assay: Mustard oil colitis (visceral pain), curative treatment. Type of assay: in vivo. The source says:
(§1) The effects of tapentadol hydrochloride on visceral hyperalgesia were studied, which was induced by rectal administration of mustard oil in mice (according to Laird J M, Martinez-Caro L, Garcia-Nicas E, Cervero F. (2001) A new model of visceral pain and referred hyperalgesia in the mouse. Pain 92: 335-42). The typical visceral pain behaviour was quantified in three parameters: During the first minutes after mustard oil administration spontaneous visceral pain behaviour occurs. Following this period of spontaneous pain, referred allodynia and hyperalgesia can be quantified by means of von Frey filaments of different strength stimulating the abdomen of the mice.
(§2) Male NMRI mice (28-38 g body weight) from a commercial breeder (Iffa Credo, France) were used. The animals were housed under standardized conditions: light/dark cycle (06.00-18.00 h light, 18.00-06.00 h dark), room temperature 20-24° C., relative air humidity 35-70%, 15 air changes per hour, air movement <0,2 m/sec, tap water and standard diet ad libitum, macrolon type 4 cages with maximally 30 animals per cage. There were at least 5 days between delivery and start of the experiment.
(§3) Tapentadol hydrochloride was dissolved in vehicle solution and injected intra-venously. • Doses: 2.15/ 4.64/ 10.0 mg/kg i.v. (prophylactic) 10.0/ 21.5/ 31.6 mg/kg i.v. (curative) • Administration volume: 10 ml/kg
(§4) Vehicle solution: 0.9% NaCl solution (Fresenius, Bad Homburg, FRG)
(§5) Mustard oil was dissolved in vehicle solution and administered intra-rectally Dose: 50 μl of a 3.5 Vol-% solution per animal • Vehicle solution: PEG 200
Animals were habituated to the test conditions for 20-30 min and stimulated with von Frey filaments onto the abdominal wall. 10 stimulations with von Frey filaments of 1, 4, 8, 16, and 32 mN were applied in ascending order (i.e. 10×1 mN, 10×4 mN, etc.). Animals with more than 25 positive reactions during this phase were excluded. Vaseline was applied in the perianal area to avoid the stimulation of somatic areas with the irritant chemical. Colitis was induced by rectal administration of […] mustard oil (3.5%). Control animals were treated with vehicle (50 μl PEG200). Group sizes were n =7 for all experiments.
Tapentadol hydrochloride or vehicle was given intravenously (i.v.) 4 hours after mustard oil. Seven animals were tested per group. The following parameters were counted 10 minutes before and at different time points after administration of the test compound or vehicle: • 1. Referred allodynia (number of reactions): counting of withdrawal reactions against 10 stimulations with a 1 mN von Frey filament. • 2. Referred hyperalgesia (referred pain score): counting and scoring of withdrawal reactions against 10 stimulations with a 16 mN von Frey filament (Score 1-3, 1=lifting of abdomen, licking, movement, 2=extrusion or flinching of hind paws, slight jumping, strong licking, 3=strong jumping, vocalisation). Percent of maximal possible effect (% MPE) was calculated for each animal based on the baseline taken 10 min before administration of compound or vehicle.
Significance was calculated by paired T-test (* 0.05≥p>0.01; ** 0.01≥p>0.001; *** p≤0.001. ED50 values and 95% confidence intervals were calculated by linear regression.

Assay [2] has as its system isolated guinea pig ileum. Kind of assay: Twitch contractions of the electrically stimulated isolated guinea pig ileum. The protocol: It was investigated whether tapentadol is able to modulate gastrointestinal motility.
Male guinea pigs (PBW, Charles River, KiBlegg, FRG) weighing 250-350 g were used for the study. The animals were kept under standard housing conditions: light/dark rhythm (06.00-18.00 h light, 18.00-6.00 h dark); room temperature 22±2° C., rel. air humidity 55±5%; 15 air changes per hour, air movement <0,2 m/sec. The animals were given water and an exclusive diet of “Herilan RM 204” (Eggersmann Company, Rinteln/FRG) ad libitum. Before experimental preparation they were kept in groups of up to 5 animals in type IV Makrolon cages (Ebeco Company, Castrop-Rauxel, FRG). There were at least 4 days between delivery and test day.
Tapentadol hydrochloride was dissolved in aqua bidest. Final concentrations in the organ bath ranged from 3·10^−8 to 10^−5 M (cumulative drug application). As opioid antagonist naloxone (10^−6 M) was used.
A four-compartment organ bath (Dept. Biotechnology, Grunenthal GmbH) was employed with 20 ml acrylic glass compartments, organ supports and force transducers (F10 Force transducers, Type 375, HSE, FRG) for the determination of isometric contractions. The organ baths were filled and emptied by means of a semi-automatic dosing arrangement. The nutrient medium in the organ baths was kept at room temperature. In a nutrient storage chamber and in the organ baths the nutrient solution was gassed with carbogen through a frit from 30 min before commencement of the experiment.
The nutrient solution had the following composition:
Parameter: contraction force [g]
Guinea pigs were killed in CO2-atmosphere and the ileum was dissected free from adhering tissue, removed and suspended in the organ bath. After an incubation period of at least 30 min, transmural stimulation pulses were delivered with a duration of 1 ms and an amplitude of 180 mA at 0.03 Hz (Stimulator A310, WPI, FRG) and isometric contractions (Twitch reactions) were recorded. The preparations were pre-tensioned with 1 g. […]
Data were calculated as the mean stimulated contraction force during the period of 4 to 6 min. p. appl. and expressed as percentage of the pre-value. […] All results were expressed as means±s.e.m. of 4 single experiments. For determination of 1050 values, regression lines (y=f log x) were constructed and 1050 values with s.e.m. were calculated using a computer-assisted regression analysis program (Grünenthal GmbH). The reversal of the test compound's activity by the antagonist was expressed as the percentage of the effects of the combination of agonist and antagonist referred to the effects of the test compound alone in the highest concentration according to the following formula: […]

Assay [3] concerns visceral hyperalgesia induced by rectal administration of mustard oil in mice. Nature of the assay: Mustard oil colitis (visceral pain), prophylactic treatment. Type of assay: in vivo. The settings on record: i.v. 5 min before mustard oil.
Excerpt: as §1, §2, §3, §4, §5
Animals were habituated to the test conditions for 20-30 min and stimulated with von Frey filaments onto the abdominal wall. 10 stimulations with von Frey filaments of 1, 4, 8, 16, and 32 mN were applied in ascending order (i.e. 10×1 mN, 10×4 mN, etc.). Animals with more than 25 positive reactions during this phase were excluded. […]
Tapentadol hydrochloride or vehicle was given intravenously (i.v.) 5 min before mustard oil. […] The following parameters were counted: […]

The conditions of assay [4]: clinical studies; cited from earlier work.
Assay [5] addresses recombinantly produced p-opioid receptor (Homo sapiens, UniProt P35372). The settings on record: relative to morphine; cited from earlier work.

Sequence of recombinantly produced p-opioid receptor (P35372 whole entry): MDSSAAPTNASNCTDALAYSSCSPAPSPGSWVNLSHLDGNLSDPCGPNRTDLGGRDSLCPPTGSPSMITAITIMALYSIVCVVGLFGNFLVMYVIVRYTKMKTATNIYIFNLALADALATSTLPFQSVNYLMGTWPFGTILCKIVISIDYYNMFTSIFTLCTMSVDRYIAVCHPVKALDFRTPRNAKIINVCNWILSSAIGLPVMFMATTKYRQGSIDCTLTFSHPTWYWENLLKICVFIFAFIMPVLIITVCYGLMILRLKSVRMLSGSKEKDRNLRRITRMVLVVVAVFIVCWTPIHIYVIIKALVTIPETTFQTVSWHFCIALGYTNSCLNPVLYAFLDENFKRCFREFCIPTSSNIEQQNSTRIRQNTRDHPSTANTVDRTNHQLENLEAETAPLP

Consider `CC[C@@H](c1cccc(O)c1)[C@@H](C)CN(C)C.Cl` [tapentadol hydrochloride, (1 R,2R)-3-(3-dimethylamino-1-ethyl-2-methyl-propyl)-phenol hydrochloride], for which, in assay [1] (31.6 mg/kg i.v.), the “efficacy reached at highest dose” value is “Almost full efficacy”. Further, the “ED50 referred allodynia (95% confidence intervals)” value is listed as 21.7 (19.3-25.0) mg/kg i.v in assay [1] (i.v. 4 hours after mustard oil, 1 mN von Frey filament) and 3.75 (2.76-4.75) mg/kg i.v in assay [3] (1 mN von Frey filament, 20-40 min after mustard oil). For the same compound, the “ED50 referred hyperalgesia (95% confidence intervals)” value is reported as 16.3 (12.5-19.9) mg/kg i.v in assay [1] (i.v. 4 hours after mustard oil, 16 mN von Frey filament) and 3.93 (2.32-5.69) mg/kg i.v in assay [3] (16 mN von Frey filament, 20-40 min after mustard oil). Besides, the “duration of action in the referred hyperalgesia” value in assay [1] (i.v., time course) is on record as “more than 2 h”. Further, the “time of maximal efficacy after administration” value in assay [1] (i.v., time course) came out at 20 min. The IC50 in assay [2] (Cavia porcellus, electrically induced twitch contractions, cumulative application 3·10^−8 to 10^−5 M, mean ± s.e.m. of 4 experiments) worked out at 1490 ± 200 nM. In addition, the “% reversal by naloxone” value in assay [2] (naloxone 10^−6 M added after the last application, without wash out) was 33.3%. For the same compound, in assay [2] (reduction of electrically induced contractions), the threshold concentration entry is listed as “about 10^−7 M”. The “Twitch contraction remaining at highest concentration (% of pre-value)” value in assay [2] (twitch reaction remaining at highest concentration 10^−5 M, mean ± s.e.m., hydrochloride) is on record as 5.77±1.26 % pre-value. In addition, in assay [3] (scored 2-12 min after mustard oil), the “ED50 spontaneous visceral pain behaviour (95% confidence intervals)” value is on record as 1.47 (0.51-2.28) mg/kg i.v.
Regarding `CC[C@@H](c1cccc(O)c1)[C@@H](C)CN(C)C` [tapentadol, (1R,2R)-3-(3-dimethylamino-1-ethyl-2-methyl-propyl)-phenol], the “pain-alleviating action relative to morphine” value in assay [4] was “two to three times less than that of morphine”. For the same compound, the “affinity, times less than that of morphine” value in assay [5] is 18 times.
